Experimental data: patent US5932587A, “Heterocyclic-fused pyridines” (Bayer Aktiengesellschaft, priority 1996, dated 1999)

Experiments:
CETP = experiment: Ex vivo activity: CETP activity in serum of treated Syrian golden hamsters; conditions: ex vivo CETP activity in hamster serum; for ED50 (ex vivo activity): up to 24 hours after administration
Procedure: Ex vivo activity of the compounds according to the invention
Syrian golden hamsters from in-house breeding are anaesthetized after fasting for 24 hours (0.8 mg/kg of atropine, 0.8 mg/kg of Ketavet® s.c., 30' later 50 mg/kg of Nembutal i.p.). The jugular vein is then exposed and cannulated. The test substance is dissolved in a suitable solvent (as a rule Adalat placebo solution: 60 g of glycerol, 100 ml of H2 O, PEG-400 to 1000 ml) and administered to the animals via a PE catheter inserted in the jugular vein. The control animals receive the same volume of solvent without test substance. The vein is then tied off and the wound is closed.
The administration of the test substances can also be carried out p.o., by orally administering the substances dissolved in DMSO and suspended in 0.5% Tylose by means of a stomach tube. The control animals receive identical volumes of solvent without test substance.
After various times--up to 24 hours after administration--blood (about 250 μl) is taken from the animals by puncture of the retro-orbital venous plexus. Clotting is ended by incubation at 4° C. overnight, then centrifugation is carried out at 6000×g for 10 minutes. In the serum thus obtained, CETP activity is determined by the modified CETP test. As for the CETP test described above, the transfer of ^3 H-cholesterol ester from HD lipoproteins to biotinylated LD lipoproteins is measured.
The reaction is ended by addition of Streptavidin-SPA®beads (Amersham) and the transferred radioactivity is determined directly in the liquid scintillation counter.
The test mixture is carried out as described under "CETP test". For the testing of the serum, only 10 μl of CETP are replaced by 10 μl of the corresponding serum samples. As controls, corresponding incubations with sera of untreated animals are used.
The activity transferred in the control mixtures with control sera is rated as 100% transfer. The substance concentration at which this transfer is reduced to a half is indicated as the ED50 value.

[1] = molecular target: T1, cholesterol ester transfer protein (CETP) (Homo sapiens, UniProt P11597); experiment: CETP inhibition test (transfer of 3H-cholesterol ester from human HDL to biotinylated LDL, SPA); format: biochemical; conditions: 37° C., 18 h
T1 construct: CETP is obtained from human plasma in partially purified form; from tissue; host or cells: human plasma (partially purified in house by differential centrifugation and column chromatography)
T1 sequence (P11597 18-493): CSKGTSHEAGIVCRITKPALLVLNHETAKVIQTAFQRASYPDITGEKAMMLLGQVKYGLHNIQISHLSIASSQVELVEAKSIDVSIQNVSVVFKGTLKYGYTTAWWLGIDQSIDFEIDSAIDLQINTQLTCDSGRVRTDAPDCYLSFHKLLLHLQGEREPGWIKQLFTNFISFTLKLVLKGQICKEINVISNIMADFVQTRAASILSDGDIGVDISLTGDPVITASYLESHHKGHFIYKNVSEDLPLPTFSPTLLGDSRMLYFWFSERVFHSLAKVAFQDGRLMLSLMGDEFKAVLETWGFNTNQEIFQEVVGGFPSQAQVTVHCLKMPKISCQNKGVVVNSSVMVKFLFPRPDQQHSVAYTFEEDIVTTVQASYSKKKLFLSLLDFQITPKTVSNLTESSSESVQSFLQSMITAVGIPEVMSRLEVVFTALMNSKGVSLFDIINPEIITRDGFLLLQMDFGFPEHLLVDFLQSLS
Procedure: CETP is obtained from human plasma in partially purified form by differential centrifugation and column chromatography and used for the test. To this end, human plasma is adjusted to a density of 1.21 g per ml using NaBr and centrifuged at 4° C. for 18 h at 50,000 rpm. The bottom fraction (d>1.21 g/ml) is applied to a Sephadex®phenyl-sepharose 4B (Pharmacia) column, washed with 0.15 M NaCl/0.001 M tris HCl pH 7.4 and then eluted with distilled water. The CETP-active fractions are pooled, dialysed against 50 mM Na acetate pH 4.5 and applied to a CM-Sepharose® (Pharmacia) column. The column is then eluted using a linear gradient (0-1 M NaCl). The pooled CETP fractions are dialysed against 10 mM tris HCl pH 7.4 and then further purified by chromatography on a Mono Q® column (Pharmacia).
Obtainment of radiolabelled HDL
50 ml of fresh human EDTA plasma are adjusted to a density of 1.12 using NaBr and centrifuged at 50,000 rpm for 18 h at 4° C. in a Ty 65 rotor. The upper phase is used to obtain cold LDL. The lower phase is dialysed against 3×4 l of PDB buffer (10 mM tris/HCl pH 7.4, […], 1 mM EDTA, 0.02% NaN3). 20 μl of ^3 H-cholesterol (Dupont NET-725; 1 μC/μl dissolved in ethanol) are then added per 10 ml of retentate volume and the mixture is incubated under N2 at 37° C. for 72 h. […]
To test the CETP activity, the transfer of ^3 H-cholesterol ester from human HD lipoproteins to biotinylated LD lipoproteins is measured. The reaction is ended by addition of streptavidin-SPA®beads (Amersham) and the transferred radioactivity is determined directly in a liquid scintillation counter.
In the test mixture, 10 μl of HDL-^3 H-cholesterol ester (~50,000 cpm) are incubated at 37° C. for 18 h with 10 μl of biotin-LDL (Amersham) in 50 mM Hepes/0.15 M NaCl/0.1% bovine serum albumin/0.05% NaN3 pH 7.4 with 10 μl of CETP (1 mg/ml) and 3 μl of solution of the substance to be tested (dissolved in 10% DMSO/1% RSA). 200 μl of the SPA-streptavidin bead solution (TRKQ 7005) are then added, the mixture is incubated further for 1 h with shaking and then measured in the scintillation counter. […]

[2] = In vivo activity: oral action on lipoproteins and triglycerides in Syrian golden hamsters (HDL rise); conditions: dose 2 × 3 mg/kg, hamster, up to 24 hours after administration
Procedure: In vivo activity of the compounds according to the invention
In experiments to determine the oral action on lipoproteins and triglycerides, test substance dissolved in DMSO and 0.5% Tylose suspended by means of a stomach tube are administered orally to Syrian golden hamsters from in-house breeding. To determine the CETP activity, blood (about 250 μl) is taken by retro-orbital puncture before the start of the experiment. The test substances are then administered orally by means of a stomach tube. The control animals receive identical volumes of solvent without test substance. […]
Clotting is ended by incubation at 4° C. overnight, then centrifugation at 6000×g is carried out for 10 minutes. In the serum thus obtained, the content of cholesterol and triglycerides is determined with the aid of modified commercially available enzyme tests (cholesterol enzymatic 14366 Merck, triglycerides 14364 Merck). […]
100 μl of serum dilution are mixed with 100 μl of test substance in 96-hole plates and incubated at room temperature for 10 minutes. The optical density is then determined at a wavelength of 492 nm using an automatic plate-reading apparatus. The triglyceride or cholesterol concentration contained in the samples is determined with the aid of a standard curve measured in parallel. […]

[3] = In vivo activity in transgenic hCETP mice (change in HDL, LDL, triglycerides); conditions: 80 ppm in the feed, one week
Procedure: In vivo activity in transgenic hCETP mice
Transgenic mice from in-house breeding (Dinchuck, Hart, Gonzalez Karmann Schmidt, Wirak; BBA (1995), 1295, 301) were administered the substances to be tested in the feed. Before the start of the experiment, blood was taken retro-orbitally from the mice in order to determine cholesterol and triglycerides in the serum. The serum was obtained as described above for hamsters by incubation at 4° C. overnight and subsequent centrifugation at 6000×g. After one week, blood was again taken from the mice in order to determine lipoproteins and triglycerides. The change in the parameters measured is expressed as a percentage change compared with the starting value.

Compound | ED50 (ex vivo activity) (CETP) | % Inhibition at 10 mg/kg (CETP) | IC50 [1] | % HDL rise [2] | HDL (percentage change compared with the starting value) [3] | LDL (percentage change compared with the starting value) [3] | Triglycerides (percentage change compared with the starting value) [3]
CC1CC(O)c2c(nc(C3CCCC3)c(C(O)c3ccc(C(F)(F)F)cc3)c2-c2ccc(F)cc2)N1Cc1ccccc1 (single isomer, unassigned) [Example 21] | > 10 mg/kg | 34.4% |  |  |  |  | 
OC1CSCc2nc(C3CCCC3)c(C(F)c3ccc(C(F)(F)F)cc3)c(-c3ccc(F)cc3)c21 (centres unmarked) [Example 12] | < 10 mg/kg | 49.5% | 200 nM | 12.37% |  |  | 
O=S1(=O)Cc2nc(C3CCCC3)c(C(O)c3ccc(C(F)(F)F)cc3)c(-c3ccc(F)cc3)c2C(O)C1 (centres unmarked) [Example 14] |  |  | 6000 nM |  |  |  | 
OC1CCN(Cc2ccccc2)c2nc(C3CCCC3)c(Cc3ccc(C(F)(F)F)cc3)c(-c3ccc(F)cc3)c21 (centres unmarked) [Example 16] |  |  | 850 nM |  |  |  | 
CC1CC(O)c2c(nc(C3CCCC3)c(Cc3ccc(C(F)(F)F)cc3)c2-c2ccc(F)cc2)N1Cc1ccccc1 (centres unmarked) [Example 20] | > 10 mg/kg | 50.4% |  | 9.21% | +14.5% | +6.7% | -24.5%
